Data: US20240407993A1, “PEPTIDE HAVING ANTI-AGING ACTIVITY, AND USE THEREOF” (CAREGEN CO., LTD., priority 2021, published 2024)

Legend:
AQP3 [1] = test: AQP3 mRNA level decreased by UV irradiation, RT-PCR in keratinocytes; assay type: cell-based, human; conditions: HaCaT cells, 20 mJ/cm^2 UVB, peptide 1, 10, 50 μM, 4 hours after irradiation; FIGS. 7A, 7C
Experimental: The expression of genes related to aging is inhibited when irradiated with UV.
(§1) First, HaCaT cells were seeded in a 6-well plate at a cell density of 5×10^5 cell/well, and then the cells were cultured in DMEM medium containing 10% fetal bovine serum (FBS) for 24 hours. The cultured cells were washed once with serum free DMEM medium, and then the peptide of the present invention was mixed in 1 mL of the serum free DMEM medium at each of concentrations of 1, 10, and 50 μM, and dispensed into the cells. A positive control (PC) was treated with 2.5 mM of N-Acetylcysteine (NaC) instead of the above peptide.
The cells were cultured in a CO2 incubator at 37° C. for 1 hour. The medium of the cultured cells was transferred to a tube (e-tube), 1 ml of PBS was added, and irradiation was performed with 20 mJ/cm^2 of UVB using a UV irradiator (VILBER LOURMAT, Cat No.: 3102-BSU, France). After removing PBS, 900 μL of the medium transferred to the tube was added, and culture was performed in a CO2 incubator at 37° C. for 4 hours. The cultured cells were washed twice with PBS, and then RNA was extracted from the cells using easy blue (iNtRON, Cat. No.: 17061, Korea). The extracted RNA was subjected to RT reaction using a kit (enzynomics, Cat. No.: RT200, Korea). Thereafter, RT-PCR was performed using a PCR kit (enzynomics, Cat. No.: R581T, Korea). […]

AQP3 [2] = test: AQP3 mRNA level by RT-PCR in keratinocytes; assay type: cell-based, human; conditions: HaCaT cells, peptide 1, 10, 50 μM, 24 hours; FIGS. 3A, 3C
Experimental: as §1, with “3×10^5” for “5×10^5”, “100 nM” for “2.5 mM”, “EGF” for “N-Acetylcysteine (NaC)”, “peptide. The cells were cultured in a CO2 incubator at 37° C. for 24 hours.” for “peptide.”
(§2) The cultured cells were washed twice with PBS, and then RNA was extracted from the cells using easy blue (iNtRON, Cat. No.: 17061, Korea). The extracted RNA was subjected to RT reaction using a kit (enzynomics, Cat. No.: RT200, Korea). Thereafter, RT-PCR was performed using a PCR kit (enzynomics, Cat. No.: R581T, Korea). The sequences of the primers of AQP3 and SIRT1 used in RT-PCR and the sequence of the primer of GAPDH used to compare the total RNA amount of each treatment group are shown in [Table 2].

HaCaT cells = test: Intracellular ROS level after UVB irradiation (DCFH-DA, FACS) in keratinocytes; assay type: cell-based, human; conditions: 15 mJ/cm^2 UVB, peptide 1, 10, 50 μM, 24 hours after irradiation, FIG. 4B
Experimental: The reactive oxygen species level increases when UV is irradiated. Therefore, it was confirmed whether the reactive oxygen species level decreased again and the aging phenomenon caused by oxidative stress in cells was inhibited when treated with the peptide of the present invention.
as §1, with “First, NIH3T3 cells and” for “First,”, “cell/well, respectively,” for “cell/well,”
The cells were cultured in a CO2 incubator at 37° C. for 1 hour. The medium of the cultured cells was transferred to a tube, 1 ml of PBS was added, and then the NIH3T3 cells were irradiated with 8 J/cm^2 of UVA and the HaCaT cells were irradiated with 15 mJ/cm^2 of UVB using a UV irradiator (VILBER LOURMAT, Cat No.: 3102-BSU, France). […] After centrifugation, the cells were washed with PBS, and a fluorescence value was measured through FACS.

Col1a1 = Col1a1 (collagen) gene expression by RT-PCR in fibroblasts; assay type: cell-based, mouse; conditions: NIH3T3 cells, peptide 1, 10, 50 μM, 24 hours; FIGS. 1A, 1B
Experimental: First, NIH3T3 cells (mouse fibroblast cell line) were seeded in a 6-well plate at a cell density of 3×10^5 cell/well, and then the cells were cultured in DMEM medium containing 10% fetal bovine serum (FBS) for 24 hours. The cultured cells were washed once with serum free DMEM medium, and the peptide of the present invention was mixed in 1 mL of the serum free DMEM medium at each of concentrations of 1, 10, and 50 μM, and dispensed into the cells. A positive control (PC) was treated with 5 ng/ml of TGF-β1 instead of the above peptide. The cells were cultured in a CO2 incubator at 37° C. for 24 hours.
The cultured cells were washed twice with PBS, and RNA was extracted from the cells using easy blue (iNtRON, Cat. No.: 17061, Korea). The amount of RNA extracted was quantified, 1,000 ng of RNA was added per tube, and RT reaction was performed using a kit (enzynomics, Cat. No.: PT200, Korea). RT-PCR was performed using a PCR kit (enzynomics, Cat. No.: […], Korea). The sequences of the primers of collagen, fibronectin, and elastin used in RT-PCR and the sequence of the primer of GAPDH used to compare the total RNA amount of each treatment group are shown in [Table 2].

SIRT1 = SIRT1 mRNA level by RT-PCR in keratinocytes; assay type: cell-based, human; conditions: HaCaT cells, peptide 1, 10, 50 μM, 24 hours; FIGS. 3A, 3B
Experimental: First, HaCaT cells were seeded in a 6-well plate at a cell density of 3×10^5 cell/well, and then the cells were cultured in DMEM medium containing 10% fetal bovine serum (FBS) for 24 hours. The cultured cells were washed once with serum free DMEM medium, and then the peptide of the present invention was mixed in 1 mL of the serum free DMEM medium at each of concentrations of 1, 10, and 50 μM, and dispensed into the cells. A positive control (PC) was treated with 100 nM of EGF instead of the above peptide. The cells were cultured in a CO2 incubator at 37° C. for 24 hours.
as §2

## LCACCLHNCNECQ
AQP3 [1]
  mRNA level of AQP3 decreased by UV irradiation: increased again
AQP3 [2]
  mRNA level of AQP3: increased
HaCaT cells
  intracellular reactive oxygen species level increased by UV irradiation: decreased
Col1a1
  expression of the collagen (Col1a1) gene: gradually increased as a concentration of the peptide increased
SIRT1
  mRNA level of SIRT1: increased
